{"source": "patent US8222245B2", "about": "“Oxadiazole derivatives active on sphingosine-1-phosphate (S1P)” (Glaxo Group Limited, priority 2007, dated 2012)", "origin": "cited, not measured here", "key": {"[1]": {"details": "clinical studies, first 24 hours of treatment"}, "circulating lymphocytes": {"test_system": "circulating lymphocytes", "details": "animals and man"}}, "data": [{"smiles": "CCCCCCCCc1ccc(CCC(N)(CO)CO)cc1", "note": "[FTY720]", "values": [{"measurement": "bradycardia on treatment", "setting": "[1]", "result": "bradycardia in the first 24 hours of treatment"}, {"measurement": "effect on circulating lymphocytes", "setting": "circulating lymphocytes", "result": "reduce circulating lymphocytes in animals and man"}]}]}
